In experiment [1] the target is T1, DNA topoisomerase 1 (Homo sapiens) (UniProt P11387).
T1 sequence (whole entry): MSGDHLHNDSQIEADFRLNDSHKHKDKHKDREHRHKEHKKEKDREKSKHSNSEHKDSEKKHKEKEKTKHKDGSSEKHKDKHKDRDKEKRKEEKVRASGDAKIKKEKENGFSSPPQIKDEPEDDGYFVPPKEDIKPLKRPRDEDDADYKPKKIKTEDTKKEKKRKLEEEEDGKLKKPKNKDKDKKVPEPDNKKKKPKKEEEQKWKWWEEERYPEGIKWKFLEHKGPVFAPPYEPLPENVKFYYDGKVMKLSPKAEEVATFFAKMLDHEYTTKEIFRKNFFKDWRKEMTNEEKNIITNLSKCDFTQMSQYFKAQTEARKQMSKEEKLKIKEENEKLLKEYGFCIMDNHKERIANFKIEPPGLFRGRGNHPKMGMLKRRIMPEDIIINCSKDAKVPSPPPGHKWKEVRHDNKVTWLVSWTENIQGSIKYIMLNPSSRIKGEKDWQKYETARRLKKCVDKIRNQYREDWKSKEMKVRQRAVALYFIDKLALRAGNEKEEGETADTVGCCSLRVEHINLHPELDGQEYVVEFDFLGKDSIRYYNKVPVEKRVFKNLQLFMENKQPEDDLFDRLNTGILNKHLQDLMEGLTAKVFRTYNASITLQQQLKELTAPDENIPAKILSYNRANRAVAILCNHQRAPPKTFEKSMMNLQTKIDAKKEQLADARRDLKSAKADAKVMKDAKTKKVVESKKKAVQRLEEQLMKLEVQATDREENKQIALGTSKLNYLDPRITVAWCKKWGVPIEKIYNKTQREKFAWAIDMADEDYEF
Put plainly: Concentration tested for Top1-mediated DNA cleavage (concentration taken upto 100 uM); +++: Good activity. The class given is functional.

For a further experiment, the system named is Cell line. The experiment can be described thus: Mean graph midpoint for growth inhibition of all human cancer cell lines. The class given is functional.
Experiment [2] concerns the target T1, DNA topoisomerase 1 (Homo sapiens). Put plainly: Concentration tested for Top1-mediated DNA cleavage (concentration taken upto 100 uM). The class given is functional.
Experiment [3] concerns P388. The experiment can be described thus: Ratio of the growth inhibition for P388 resistant cells to that of parental cells; Value expressed as RF (resistance factor). The class given is functional, Homo sapiens.
The test system of experiment [4] is HCT-116. Put plainly: Ratio of the growth inhibition for HCT116 resistant cells to that of parental cells; Value expressed as RF (resistance factor). Format: functional, Homo sapiens.
The test system of experiment [5] is HCT-116. The experiment can be described thus: Ratio of the growth inhibition for HCT116 Top1 resistant cells to that of parental cells; Value expressed as RF (resistance factor). The class given is functional, Homo sapiens.
Experiment [6] is described as follows: Ratio of the growth inhibition for P388/CPT 45 resistant cells to that of parental cells; Value expressed as RF (resistance factor). Format: functional, Homo sapiens.
Experiment [7] in a line: Growth inhibition against Colon HCT116 cell line. Format: functional, Homo sapiens, HCT-116.
In experiment [8] the test system is OVCAR-3. The experiment can be described thus: Growth inhibition against Ovarian OVCAR-3 cell line. Format: functional. The conditions noted are these: Homo sapiens.
Experiment [9] has as its system DU-145. Put plainly: Growth inhibition against Prostate DU-145 cell line. The class given is functional. Particulars: Homo sapiens.
The nature of experiment [10]: (§1) Growth inhibition against Breast MDA-MB-435 cell line. The class given is functional. Particulars: Homo sapiens.
Experiment [11] is described as follows: (§2) Growth inhibition against Melanoma UACC-62 cell line. Format: functional, Homo sapiens.
Experiment [12] has as its system P388. The experiment can be described thus: Growth inhibition against P388 cell line. Format: functional. Particulars: Mus musculus.
Experiment [13] deals with HCT-116. Put plainly: Growth inhibition against HCT116 cell line. Format: functional. Particulars: Homo sapiens.
A short description of experiment [14]: Growth inhibition against P388 cell line in. The class given is functional.
Experiment [15] deals with HCT-116. Put plainly: Growth inhibition against HCT116 V cell line. The conditions noted are these: Homo sapiens. The class given is functional.
A short description of experiment [16]: Growth inhibition against CNS SF-539 cell line. Format: functional. Particulars: Homo sapiens.
Experiment [17] in a line: Growth inhibition against Renal SN12C cell line. The class given is functional. Particulars: Homo sapiens.
A further experiment relates to HOP-62. The experiment can be described thus: Growth inhibition against Lung HOP-62 cell line. The class given is functional. The conditions noted are these: Homo sapiens.
Experiment [18] relates to HCT-116. The experiment can be described thus: Growth inhibition against HCT116 DNA topoisomerase 1 in (Top1-deficient and parental tumor cells). Format: functional. The conditions noted are these: Homo sapiens.
The test system of experiment [19] is HCT-116. Put plainly: Ratio of the growth inhibition for Top1 siRNA cells (HCT116-Top1) to that for the vector-control cells (HCT116-V); Value expressed as RF (resistance factor). Format: functional, Homo sapiens.
A further experiment has as its system SF-539. The experiment can be described thus: Growth inhibition against CNSSF-539 cell line. Format: functional. Particulars: Homo sapiens.
Experiment [20] has as its system DU-145. Put plainly: Growth inhibition against ProstateDU-145 cell line. Format: functional. Particulars: Homo sapiens.
Experiment [21] can be described thus: Growth inhibition against ColonHCT-116 cell line. Format: functional. The conditions noted are these: Homo sapiens.
The subject of experiment [22] is OVCAR-3. The experiment can be described thus: Growth inhibition against OvarianOVCAR-3 cell line. Format: functional. The conditions noted are these: Homo sapiens.
The next experiment has as its system UACC-62. Described as §2. Format: functional. The conditions noted are these: Homo sapiens.
In the next experiment the test system is MDA-MB-435. The experiment is described as §1. The class given is functional. Particulars: Homo sapiens.
Experiment [23] addresses T1, DNA topoisomerase 1 (Homo sapiens). Put plainly: Concentration tested for Top1-mediated DNA cleavage (concentration taken upto 100 uM); ++: similar activity as the parent compound 3a. The class given is functional.
The target is the same in experiment [24]. Put plainly: Concentration tested for Top1-mediated DNA cleavage (concentration taken upto 100 uM);0: no activity. The class given is functional.
The target is the same in experiment [25]. Put plainly: Concentration tested for Top1-mediated DNA cleavage (concentration taken upto 100 uM);+: weak activity. The class given is functional.
Experiment [26] has the same target. Put plainly: Concentration tested for Top1-mediated DNA cleavage;+: weak activity. The class given is functional.

One may read the GI50 as the concentration giving 50% growth inhibition.

The molecule `O=C1c2cc3c(cc2-c2c1c1ccc([N+](=O)[O-])cc1c(=O)n2CCCCl)OCO3` showed a Concentration in experiment [1] of 100 µM. In the experiment with Cell line, this molecule showed an MGM of 0.83 µM.

`COc1cc2c(cc1OC)[C@H]1C(=O)c3cc4c(cc3[C@H]1N(C)C2=O)OCO4` registered a Concentration in experiment [2] of 100 µM. The molecule further yielded an MGM with Cell line of 5 µM. In addition, the RF in the experiment with P388 [3] came out at 1; with HCT-116 [4], 1; in the experiment with HCT-116 [5], 35; in experiment [6], 128; in the experiment with HCT-116 [19], 7. For the same molecule, the GI50 was found to be 2 µM in [7] (Homo sapiens, HCT-116); 6.7 µM in the experiment with OVCAR-3 [8]; 4.1 µM in the experiment on DU-145 [9]; 17 µM in [10]; 0.42 µM in [11] (Homo sapiens, UACC-62); 9.88 nM with P388 [12]. For the same molecule, the GI50 came out at 59.9 nM with HCT-116 [13]; 1260 nM in experiment [14]; 418 nM in the experiment with HCT-116 [15]; 3.1 µM in [16]; 2.1 µM in experiment [17]; 9.4 µM in the experiment with HOP-62. The GI50 in the experiment with HCT-116 [18] was found to be 12 nM.

For the molecule `COc1cc2c3c(n(C)c(=O)c2cc1OC)-c1cc2c(cc1C3=O)OCO2`, the GI50 in the experiment on SF-539 is 41 µM; in the experiment with DU-145 [20], 37 µM; in [21], 35 µM; in the experiment on OVCAR-3 [22] it was 73 µM; in the experiment on UACC-62 it was 4.2 µM; in the experiment with MDA-MB-435, 96 µM. The GI50 in experiment [17] stood at 68 µM; with HOP-62, 1.3 µM. The molecule also had an MGM in the experiment with Cell line of 20 µM. The Concentration in experiment [23] was found to be 100 µM.

The molecule `COc1cc2c(cc1OC)[C@@]1(C)C(=O)c3cc4c(cc3[C@H]1N(C)C2=O)OCO4` had an MGM in the experiment with Cell line of 51.3 µM. For the same molecule, the GI50 in experiment [7] was 24 µM; in experiment [7] (Homo sapiens, HCT-116), 43.5 µM; in [10], over 100 µM; in experiment [11], 58.1 µM; in [11] (Homo sapiens, UACC-62), 82.4 µM; in [16], 96.2 µM. Besides, the values for the GI50 (in experiment [17]; with HOP-62) were 26 µM and over 100 µM, respectively. For the same molecule, in [23], the Concentration was determined as 100 µM.

`C=CCN1C(=O)c2cc(OC)c(OC)cc2[C@H]2C(=O)c3cc4c(cc3[C@H]21)OCO4` showed a Concentration in experiment [24] of 100 µM. Further, in the experiment on Cell line, the MGM was 0.98 µM.

In experiment [25], `C=CCn1c2c(c3cc(OC)c(OC)cc3c1=O)C(=O)c1cc3c(cc1-2)OCO3` showed a Concentration of 100 µM. Also, in the experiment on Cell line, the MGM came to 4.16 µM.

`O=C1c2cc3c(cc2[C@@H]2[C@H]1c1ccc([N+](=O)[O-])cc1C(=O)N2CCCCl)OCO3` yielded a Concentration in [26] of 100 µM. The molecule also displayed an MGM in the experiment with Cell line of 0.018 µM.

(Values after ChEMBL document CHEMBL1145275, “Dihydroindenoisoquinolines function as prodrugs of indenoisoquinolines” (2005).)
